System: B16F10 tumor-bearing mice
Experiment: Luciferase expression tumor/whole body after intratumoral injection, B16F10 tumor-bearing mice
Assay type: in vivo, C57BL/6 mice
Conditions: for LNP (tumor/whole body)% ratio of luciferase expression: cationic lipid:DSPC:PEG-DMG:cholesterol 50:10:1.5:38.5 (groups 1-1 to 1-3); for LNP (tumor/whole body)% ratio of luciferase expression / LPP (tumor/whole body)% ratio of luciferase expression: 5 μg luciferase mRNA intratumoral, 6 hours; for LPP (tumor/whole body)% ratio of luciferase expression: cationic lipid:DSPC:PEG-DMG:cholesterol 50:10:1.5:38.5 (groups 1-4 to 1-6)
Protocol: (§1) Female C57BL/6 mice (Beijing Vital River Laboratory Animal Technology Co., Ltd.) of 6 weeks of age with a weight of around 20 g were used, and each mouse was injected subcutaneously unilaterally with 1×10^6 murine-derived cutaneous melanoma cells, B16F10 cells. When tumors grew to a size of about 450 mm^3, B16F10 tumor-bearing mice were divided into 6 groups (1-1, 1-2, 1-3, 1-4, 1-5, and 1-6 groups, with 3 mice per group), and LPP and LNP solutions (50 μL) containing 5 μg of luciferase mRNA prepared by the prescriptions were respectively taken and administered to the mice by intratumoral injection. 6 hours after the administration, mice were injected intraperitoneally with a 150 mg/kg […] substrate. The bioluminescence was measured in a Xenogen IVIS-200 imaging system 7 minutes after substrate injection to evaluate the expression and distribution of the luciferase mRNA in the mice.
as §1, with “into 8” for “into 6”, “groups (2-1, 2-2, 2-3, 2-4, 2-5, 2-6, 2-7,” for “groups (1-1, 1-2, 1-3, 1-4, 1-5,”, “and 2-8” for “and 1-6”, “and” for “and LPP and LNP”
as §1, with “mm^3, the” for “mm^3, B16F10 tumor-bearing”, “into 8” for “into 6”, “groups (3-1, 3-2, 3-3, 3-4, 3-5, 3-6, 3-7, 3-8” for “groups (1-1, 1-2, 1-3, 1-4, 1-5, and 1-6”, “and” for “and LPP and LNP”

Compound	LNP (tumor/whole body)% ratio of luciferase expression	LPP (tumor/whole body)% ratio of luciferase expression	ratio of luciferase expression of tumor/whole body, rank among cationic lipids (Example 3, versus ALC-0315 and SW-II-127)
CCCCCCCCC(CCCCCCCC)OC(=O)CCCCCCCN(CCO)CCCCCCC(=O)OCc1ccc(CCCCCC)cc1 [SW-II-127]	15.0 ± 18.5%	25.7 ± 15.1%	
CCCCCCCCC(CCCCCC)C(=O)OCCCCCCN(CCCCO)CCCCCCOC(=O)C(CCCCCC)CCCCCCCC (stereo not shown) [ALC-0315, reference compound]	4.9%	11.2 ± 7.9%	
CCCCCCCCCOC(=O)CCCCCCCN(CCO)CCCCCCCC(=O)OCCCc1ccc(CCCCC)c(CCCCC)c1 [SW-II-135-1]	43.6 ± 34.7%	58.6 ± 36.4%	highest ratio of luciferase expression of tumor/whole body
